Laboratory results taken from patent US12077503B2, “Substituted cyclic amides and their use as herbicides” (FMC CORPORATION, priority 2015, dated 2024).

Tests used:
Format in all cases: in vivo
[1] = test system: corn (Zea mays); assay: Test G Pre-Emergence Protocol; conditions: Zea mays, pre-emergence, 312 h, evaluated after 13 days
Procedure, shortened: (§1)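 Glasshouse pre-emergence test: soil-sown seeds, sprayed after 1 d at 15.625, 62.5 or 250 g/ha. Conditions 24/16° C day/night, 14 h light, 65% humidity, watering twice daily. Rating 13 d post-spray (100 = total damage).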

[2] = test system: velvetleaf (Abutilon theophrasti); assay: Test G Pre-Emergence Protocol; conditions: Abutilon theophrasti, pre-emergence, 312 h, evaluated after 13 days
Procedure, shortened: as §1

[3] = test system: giant foxtail (Setaria faberi); assay: Test G Pre-Emergence Protocol; conditions: Setaria faberi, pre-emergence, 312 h, evaluated after 13 days
Procedure, shortened: as §1

[4] = test system: barnyardgrass (Echinochloa crus-galli); assay: Test G Pre-Emergence Protocol; conditions: Echinochloa crus-galli, pre-emergence, 312 h, evaluated after 13 days
Procedure, shortened: as §1

[5] = test system: redroot pigweed (Amaranthus retroflexus); assay: Test G Pre-Emergence Protocol; conditions: Amaranthus retroflexus, pre-emergence, 312 h, evaluated after 13 days
Procedure, shortened: as §1

[6] = test system: ivy-leaved morning glory (Ipomoea hederacea); assay: Test G Pre-Emergence Protocol; conditions: Ipomoea, pre-emergence, 312 h, evaluated after 13 days
Procedure, shortened: as §1

[7] = test system: corn (Zea mays); assay: Test G Post-Emergence Protocol; conditions: Zea mays, post-emergence, 312 h
Procedure, shortened: (§2)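 Seedlings grown 8 days in soil in a glasshouse (24/16 °C day/night, 14 h light, 65% humidity) were sprayed post-emergence with compound in acetone/water 50:50 plus 0.5% Tween 20 at 15.625, 62.5 or 250 g/ha. Damage was scored after 13 days on a 0–100 scale (100 = total damage).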

[8] = test system: velvetleaf (Abutilon theophrasti); assay: Test G Post-Emergence Protocol; conditions: Abutilon theophrasti, post-emergence, 312 h
Procedure, shortened: as §2

[9] = test system: giant foxtail (Setaria faberi); assay: Test G Post-Emergence Protocol; conditions: Setaria faberi, post-emergence, 312 h
Procedure, shortened: as §2

[10] = test system: barnyardgrass (Echinochloa crus-galli); assay: Test G Post-Emergence Protocol; conditions: Echinochloa crus-galli, post-emergence, 312 h
Procedure, shortened: as §2

[11] = test system: redroot pigweed (Amaranthus retroflexus); assay: Test G Post-Emergence Protocol; conditions: Amaranthus retroflexus, post-emergence, 312 h
Procedure, shortened: as §2

[12] = test system: ivy-leaved morning glory (Ipomoea hederacea); assay: Test G Post-Emergence Protocol; conditions: Ipomoea, post-emergence, 312 h
Procedure, shortened: as §2

With `COc1c(Cl)cccc1NC(=O)[C@H]1C(=O)N(C)C[C@@H]1c1ccc(C(F)(F)F)cc1` (racemic) [Compound 1447] as the compound, how does the plant injury at 15.625 g/ha ([1]; 15.625 g ai/ha, read-out: Corn damage rating (100=total damage to plant; 0=no damage to plant)) read?
The plant injury at 15.625 g/ha was 0%.

What about the plant injury at 62.5 g/ha ([1]; 62.5 g ai/ha, 100=total damage to plant, 0=no damage to plant, read-out: plant damage rating, Corn) of the same compound?
Its plant injury at 62.5 g/ha is 0%.

And the plant injury at 250 g/ha ([1]; 250 g ai/ha, read-out: Corn damage rating (100=total damage to plant; 0=no damage to plant))?
The plant injury at 250 g/ha was 20%.

What about the pest or weed control at 15.625 g/ha ([2]; 15.625 g ai/ha, read-out: Velvetleaf damage rating (100=total damage to plant; 0=no damage to plant)) of the same compound?
The pest or weed control at 15.625 g/ha was 0%.

And the pest or weed control at 62.5 g/ha ([2]; 62.5 g ai/ha, 100=total damage to plant, 0=no damage to plant, read-out: plant damage rating, Velvetleaf)?
The pest or weed control at 62.5 g/ha was 0%.

What about the pest or weed control at 250 g/ha ([2]; 250 g ai/ha, read-out: Velvetleaf damage rating (100=total damage to plant; 0=no damage to plant)) of the same compound?
The pest or weed control at 250 g/ha was 0%.

And the pest or weed control at 15.625 g/ha ([3]; 15.625 g ai/ha, read-out: Foxtail, Giant damage rating (100=total damage to plant; 0=no damage to plant))?
The pest or weed control at 15.625 g/ha was 50%.

And the pest or weed control at 62.5 g/ha ([3]; 62.5 g ai/ha, 100=total damage to plant, 0=no damage to plant, read-out: plant damage rating, Foxtail, Giant)?
Its pest or weed control at 62.5 g/ha is 50%.

And the pest or weed control at 250 g/ha ([3]; 250 g ai/ha, read-out: Foxtail, Giant damage rating (100=total damage to plant; 0=no damage to plant))?
The pest or weed control at 250 g/ha was 60%.

And the pest or weed control at 15.625 g/ha ([4]; 15.625 g ai/ha, read-out: Barnyard grass damage rating (100=total damage to plant; 0=no damage to plant))?
Its pest or weed control at 15.625 g/ha is 0%.

What about the pest or weed control at 62.5 g/ha ([4]; 62.5 g ai/ha, 100=total damage to plant, 0=no damage to plant, read-out: plant damage rating, Barnyardgrass) of the same compound?
The pest or weed control at 62.5 g/ha was 0%.

And the pest or weed control at 250 g/ha ([4]; 250 g ai/ha, read-out: Barnyardgrass damage rating (100=total damage to plant; 0=no damage to plant))?
The pest or weed control at 250 g/ha was 10%.

What about the pest or weed control at 15.625 g/ha ([5]; 15.625 g ai/ha, read-out: Pigweed, Redroot damage rating (100=total damage to plant; 0=no damage to plant)) of the same compound?
The pest or weed control at 15.625 g/ha was 0%.

And the pest or weed control at 62.5 g/ha ([5]; 62.5 g ai/ha, 100=total damage to plant, 0=no damage to plant, read-out: plant damage rating, Pigweed, Redroot)?
Its pest or weed control at 62.5 g/ha is 0%.

What about the pest or weed control at 250 g/ha ([5]; 250 g ai/ha, read-out: Pigweed, Redroot damage rating (100=total damage to plant; 0=no damage to plant)) of the same compound?
The pest or weed control at 250 g/ha was 0%.

What about the pest or weed control at 15.625 g/ha ([6]; 15.625 g ai/ha, read-out: Morning-glory, Ivy-leaved damage rating (100=total damage to plant; 0=no damage to plant)) of the same compound?
Its pest or weed control at 15.625 g/ha is 0%.

What about the pest or weed control at 62.5 g/ha ([6]; 62.5 g ai/ha, 100=total damage to plant, 0=no damage to plant, read-out: plant damage rating, Morningglory, Ivy-leaved) of the same compound?
The pest or weed control at 62.5 g/ha was 0%.

What about the pest or weed control at 250 g/ha ([6]; 250 g ai/ha, read-out: Morningglory, Ivy-leaved damage rating (100=total damage to plant; 0=no damage to plant)) of the same compound?
Its pest or weed control at 250 g/ha is 0%.

And the plant injury at 15.625 g/ha ([7]; 15.625 g ai/ha, evaluated after 13 days (100=total damage to plant; 0=no damage to plant), read-out: Corn damage rating)?
Its plant injury at 15.625 g/ha is 0%.

What about the plant injury at 62.5 g/ha ([7]; 62.5 g ai/ha, evaluated after 13 days, read-out: Corn damage rating (100=total damage to plant; 0=no damage to plant)) of the same compound?
Its plant injury at 62.5 g/ha is 10%.

What about the plant injury at 250 g/ha ([7]; 250 g ai/ha, evaluated after 13 days, read-out: damage to plant, Corn (100=total damage to plant; 0=no damage to plant)) of the same compound?
The plant injury at 250 g/ha was 10%.

What about the pest or weed control at 15.625 g/ha ([8]; 15.625 g ai/ha, evaluated after 13 days (100=total damage to plant; 0=no damage to plant), read-out: Velvetleaf damage rating) of the same compound?
The pest or weed control at 15.625 g/ha was 0%.

And the pest or weed control at 62.5 g/ha ([8]; 62.5 g ai/ha, evaluated after 13 days, read-out: Velvetleaf damage rating (100=total damage to plant; 0=no damage to plant))?
Its pest or weed control at 62.5 g/ha is 0%.

What about the pest or weed control at 250 g/ha ([8]; 250 g ai/ha, evaluated after 13 days, read-out: damage to plant, Velvetleaf (100=total damage to plant; 0=no damage to plant)) of the same compound?
The pest or weed control at 250 g/ha was 0%.

And the pest or weed control at 15.625 g/ha ([9]; 15.625 g ai/ha, evaluated after 13 days (100=total damage to plant; 0=no damage to plant), read-out: Foxtail, Giant damage rating)?
The pest or weed control at 15.625 g/ha was 10%.

What about the pest or weed control at 62.5 g/ha ([9]; 62.5 g ai/ha, evaluated after 13 days, read-out: Foxtail, Giant damage rating (100=total damage to plant; 0=no damage to plant)) of the same compound?
Its pest or weed control at 62.5 g/ha is 20%.

What about the pest or weed control at 250 g/ha ([9]; 250 g ai/ha, evaluated after 13 days, read-out: damage to plant, Foxtail, Giant (100=total damage to plant; 0=no damage to plant)) of the same compound?
The pest or weed control at 250 g/ha was 50%.

And the pest or weed control at 15.625 g/ha ([10]; 15.625 g ai/ha, evaluated after 13 days (100=total damage to plant; 0=no damage to plant), read-out: Barnyardgrass damage rating)?
Its pest or weed control at 15.625 g/ha is 0%.

What about the pest or weed control at 62.5 g/ha ([10]; 62.5 g ai/ha, evaluated after 13 days, read-out: Barnyardgrass damage rating (100=total damage to plant; 0=no damage to plant)) of the same compound?
Its pest or weed control at 62.5 g/ha is 0%.

And the pest or weed control at 250 g/ha ([10]; 250 g ai/ha, evaluated after 13 days, read-out: damage to plant, Barnyardgrass (100=total damage to plant; 0=no damage to plant))?
Its pest or weed control at 250 g/ha is 0%.

And the pest or weed control at 15.625 g/ha ([11]; 15.625 g ai/ha, evaluated after 13 days (100=total damage to plant; 0=no damage to plant), read-out: Pigweed, Redroot damage rating)?
The pest or weed control at 15.625 g/ha was 0%.

And the pest or weed control at 62.5 g/ha ([11]; 62.5 g ai/ha, evaluated after 13 days, read-out: Pigweed, Redroot damage rating (100=total damage to plant; 0=no damage to plant))?
Its pest or weed control at 62.5 g/ha is 0%.

And the pest or weed control at 250 g/ha ([11]; 250 g ai/ha, evaluated after 13 days, read-out: damage to plant, Pigweed, Redroot (100=total damage to plant; 0=no damage to plant))?
The pest or weed control at 250 g/ha was 0%.

And the pest or weed control at 15.625 g/ha ([12]; 15.625 g ai/ha, evaluated after 13 days (100=total damage to plant; 0=no damage to plant), read-out: Morningglory, Ivy-leaved damage rating)?
The pest or weed control at 15.625 g/ha was 0%.

And the pest or weed control at 62.5 g/ha ([12]; 62.5 g ai/ha, evaluated after 13 days, read-out: Morningglory, Ivy-leaved damage rating (100=total damage to plant; 0=no damage to plant))?
Its pest or weed control at 62.5 g/ha is 0%.

What about the pest or weed control at 250 g/ha ([12]; 250 g ai/ha, evaluated after 13 days, read-out: damage to plant, Morningglory, Ivy-leaved (100=total damage to plant; 0=no damage to plant)) of the same compound?
Its pest or weed control at 250 g/ha is 0%.
